Measured values reported in US5352665A, “Method of treating disease caused by the infection of virus” (Mitsui Toatsu Chemicals, Incorporated, priority 1987, dated 1994).
Square brackets hold non-standard residues; d marks the D form. Peptide text beside a SMILES is read from it. pGlu = O=C1CC[C@@H](C(=O)O)N1

Tests used:
[1] = Toxicity test, repeated subcutaneous administration to mice; format: in vivo, mouse
Description: (§1) Thus, the medicament of the present invention is a safe medicament of extremely low toxicity and can be administered for a long period of time.

[2] = Toxicity test, repeated subcutaneous administration to rats; format: in vivo, rat; settings: 30 mg/kg subcutaneously for consecutive 21 days
Description: as §1

REO virus type II = experiment: Jerne plaque assay (anti-SRBC hemolysis plaques) in new-born NC mice infected with REO virus; format: in vivo, mouse; settings: for PFC/10^6 spleen cells (number of hemolysis plaques): measured 4 days later; for therapeutic effect on immune inhibition (in words): administered together with SRBC to infected NC mice, LPS 5 μg/mouse, MDP 20 μg/mouse
Procedure: Two weeks after the infection of 10^5 PFU REO virus, sheep red blood cells (referred to hereinafter simply as SRBC) was intraperitoneally administered and 4 days after the administration, the number of hemolysis plaques was measured by way of Jerne plaque assay as a production amount of antibody-forming cells against SRBC. The number of hemolysis plaques was 15±2 per 10^6 spleen cells in a group not infected with REO virus, while that was 2.8±1.6 in an infected group, thus showing a remarkable immunity inhibitory state. In compliance with this, atrophy of thymus and decrease in the number of thymic cortex lymphocytes were observed.
On the other hand, the effective ingredient of this invention dissolved in physiological saline was administered in an amount of 10 μg/mouse simultaneously with SRBC to mice, and 4 days after the administration, the number of hemolysis plaques was measured whereupon the number was 22±5. […] In a group to which muramyl dipeptide was administered in an amount of 20 μg/mouse together with Freund incomplete adjuvant, the number of hemolysis plaques was 11±2.
Next, recovery of the immune function by immunity-enhancing substance was examined, using new-born mice infected with REO virus type II. Two weeks after the infection of the mice with the virus, sheep red blood cells were administered to the mice, and 4 days after the administration, Jerne plaque assay was carried out to measure the number of hemolysis plaques. The number was 15±2 in a group of the mice not infected and was 2.8±1.6 in a group of the infected mice. […] This recovery of the function of immune inhibition is tabulated as follows:
Mice infected with virus was immunized at the same time with SRBC and an immunostimulant, and 4 days after the immunization, the number of hemolysis plaques was measured by Jerne plaque assay.
After mice being infected with REO virus, 10 μg 1 μg or 0.1 μg of FTS was administered to the mice. After 18 days, inhibition of immunity and recovery of its function were observed by way of Jerne plaque assay.
Virus: REO virus type II, innoculation 1×10^5 PFU/mouse

Compound | toxicity ([1]; 50 mg/kg and 100 mg/kg subcutaneously for consecutive 14 days, ddy male mice of 5 weeks old) | abnormal symptom by external check ([1]; 100 mg/kg subcutaneously every day for consecutive 14 days, mice) | abnormal symptom in external behavior observation, biochemical diagnosis of sera and pathological anatomy ([2]; rats) | toxicity ([2]; wister rats of 5 weeks old) | PFC/10^6 spleen cells (number of hemolysis plaques) (REO virus type II; MDP 20 μg/mouse with Freund incomplete adjuvant and SRBC 2 weeks after 10^5 PFU REO virus) [PFC/10^6 spleen cells] | PFC/10^6 spleen cells (number of hemolysis plaques) (REO virus type II; MDP 20 μg/mouse with Freund incomplete adjuvant and SRBC 2 weeks after 10^5 PFU REO virus, listed as muramyl dipeptide) [PFC/10^6 spleen cells] | therapeutic effect on immune inhibition (in words) (REO virus type II) | PFC/10^6 spleen cells (number of hemolysis plaques) (REO virus type II; LPS 5 μg/mouse with SRBC 2 weeks after 10^5 PFU REO virus) [PFC/10^6 spleen cells] | PFC/10^6 spleen cells (number of hemolysis plaques) (REO virus type II; LPS 5 μg/mouse with SRBC 2 weeks after 10^5 PFU REO virus, listed as lipopolysaccharide (LPS)) [PFC/10^6 spleen cells]
C[C@H](NC(=O)[C@@H]1CCC(=O)N1)C(=O)N[C@@H](CCCCN)C(=O)N[C@@H](CO)C(=O)N[C@@H](CCC(N)=O)C(=O)NCC(=O)NCC(=O)N[C@@H](CO)C(=O)N[C@@H](CC(N)=O)C(=O)O [FTS, pGlu-Ala-Lys-Ser-Gln-Gly-Gly-Ser-Asn] ([pGlu]AKSQGGSN-OH) | No toxicity was observed | no abnormal symptom was found | no abnormal symptom was found | No toxicity was observed |  |  |  |  | 
CC(=O)N[C@H]1C(O)O[C@H](CO)[C@@H](O)[C@@H]1O[C@H](C)C(=O)N[C@@H](C)C(=O)N[C@H](CCC(=O)O)C(N)=O (mixture of isomers) [MDP, muramyl dipeptide] |  |  |  |  | 11 ± 2 | 11±2 | showing a therapeutic effect |  | 
lipopolysaccharide [LPS] |  |  |  |  |  |  | no therapeutic effect | 0.3 ± 0.4 | 0.3±0.4
